# Results published in publication PMC8217170, “Phase Ib dose-escalation study of the hypoxia-modifier Myo-inositol trispyrophosphate in patients with hepatopancreatobiliary tumors” (Nature Communications, 2021).
# Where “and” joins values, the source holds several entries; their conditions need not be identical. Equal values may be shown once. Read-outs that look alike come from different tables or passages of the source.
# Experiments:
# [1] = system: target lesions of PDAC, CRLM, CCA and HCC; test: Metabolic radiological response, FDG-PET-CT, EORTC criteria; format: in vivo, human; set-up: key to EORTC response after chemotherapy / EORTC response after ITPP / RespITPP_EORTC / RespChemo_EORTC: CMR = complete metabolic response; PMR = partial metabolic response; SMD = stable metabolic disease; PMD = progressive metabolic disease; Median change in metabolic activity, EORTC: concentration or dose not given beside the values; Lesion1_pre_TLG / Lesion1_post_TLG / Lesion1_chemo_TLG / Lesion2_pre_TLG / Lesion2_post_TLG / Lesion2_chemo_TLG / Lesion3_pre_TLG / Lesion3_post_TLG / Lesion3_chemo_TLG / Lesion4_pre_TLG / Lesion4_post_TLG / Lesion4_chemo_TLG / Lesion5_pre_TLG / Lesion5_post_TLG / Lesion5_chemo_TLG: unit not given here; conditions: for EORTC response after chemotherapy: chemotherapy subsequent to ITPP; for RespITPP_EORTC / RespChemo_EORTC: EORTC
# Method: Radiological assessment, consisting of abdominal MRI and FDG-PET-CT, was performed before ITPP administration and after the 3-week treatment course. Where possible, radiological re-evaluation was performed after 3–6 cycles of chemotherapy. Radiological responses were evaluated according to the RECIST 1.1 criteria[56] for MRI and EORTC criteria[57] for FDG-PET-CT imaging.
# Then first calculate the sum of diameters (DM) and SUV-activities of radiological target lesions before ITPP (sum_pre), after ITPP (sum_post) and after subsequent chemotherapy (sum_chemo) for assessment of morphological RECIST1.1 (diameter) and metabolical EORTC (SUV activiy) responses.
# Patient 1 (dropout after only 2 infusions and subsequent death due to rapid oncological progression) is excluded for radiological assessment due to no follow up imaging available.
# In a second step, we calculate percent changes (PC) of diameter and SUV activity between before ITPP, after ITPP and after chemotherapy.
# [2] = in vivo
# [3] = system: colorectal liver metastasis; conditions: cited from earlier work; for Survival: ref 16 (supplementary references)
# [4] = set-up: method as in unpublished data obtained from NormOxys; conditions: minipigs, once weekly; ref unpublished data obtained from NormOxys; cited from earlier work
# [5] = after chemotherapy subsequent to ITPP, 15 patients
# [6] = individual patients, lesion 1, after subsequent chemotherapy
# [7] = individual patients, lesion 1, post ITPP
# [8] = individual patients, lesion 1, pre ITPP (baseline)
# [9] = individual patients, lesion 2, after subsequent chemotherapy
# [10] = individual patients, lesion 2, post ITPP
# [11] = individual patients, lesion 2, pre ITPP (baseline)
# [12] = individual patients, lesion 3, after subsequent chemotherapy
# [13] = individual patients, lesion 3, post ITPP
# [14] = individual patients, lesion 3, pre ITPP (baseline)
# [15] = individual patients, lesion 4, after subsequent chemotherapy
# [16] = individual patients, lesion 4, post ITPP
# [17] = individual patients, lesion 4, pre ITPP (baseline)
# [18] = individual patients, lesion 5, after subsequent chemotherapy
# [19] = individual patients, lesion 5, post ITPP
# [20] = individual patients, lesion 5, pre ITPP (baseline)
compound,measurement,setting,value
"O=P1(O)OC2C3OP(=O)(O)OP(=O)(O)OC3C3OP(=O)(O)OP(=O)(O)OC3C2OP(=O)(O)O1 (stereo not drawn) [ITPP, Myo-inositol trispyrophosphate]","Median change in metabolic activity, EORTC","[1]; CCA, following chemotherapy",−32.39%
same,"Median change in metabolic activity, EORTC","[1]; CCA, under ITPP monotherapy",17.97%
same,"Median change in metabolic activity, EORTC","[1]; CRLM, following chemotherapy",−14.64%
same,"Median change in metabolic activity, EORTC","[1]; CRLM, under ITPP monotherapy",40.1%
same,"Median change in metabolic activity, EORTC","[1]; HCC, following chemotherapy",−8.47%
same,"Median change in metabolic activity, EORTC","[1]; HCC, under ITPP monotherapy",15.54%
same,Share of patients with PMR,[1]; ITPP monotherapy,15%
same,Share of patients with SMD,[1]; ITPP monotherapy,41%
same,"Median change in metabolic activity, EORTC","[1]; PDAC, following chemotherapy",−52.19%
same,"Median change in metabolic activity, EORTC","[1]; PDAC, under ITPP monotherapy",−3.36%
same,"Metabolic progressions (PMD), EORTC",[1]; after ITPP monotherapy,10
same,"Partial metabolic responses (PMR), EORTC",[1]; after ITPP monotherapy,four
same,"Stable metabolic diseases (SMD), EORTC",[1]; after ITPP monotherapy,11
same,"Patients with PMD, EORTC",[1]; [5],4
same,"Patients with PMR, EORTC",[1]; [5],4
same,"Patients with SMD, EORTC",[1]; [5],7
same,Share of patients with PMR,[1]; after subsequent chemotherapy,27%
same,Share of patients with SMD,[1]; after subsequent chemotherapy,47%
same,EORTC response after ITPP,"[1]; individual patients, cohort 1 (1866 mg/m2)",PMD and PMR and SMD
same,EORTC response after chemotherapy,"[1]; individual patients, cohort 1, 1866 mg/m2",PMR
same,EORTC response after ITPP,"[1]; individual patients, cohort 2 (3732 mg/m2)",SMD and PMR
same,EORTC response after chemotherapy,"[1]; individual patients, cohort 2, 3732 mg/m2",SMD and PMR
same,EORTC response after ITPP,"[1]; individual patients, cohort 3 (5600 mg/m2)",SMD and PMR
same,EORTC response after chemotherapy,"[1]; individual patients, cohort 3, 5600 mg/m2",SMD and PMD
same,EORTC response after ITPP,"[1]; individual patients, cohort 4 (7000 mg/m2)",PMD and SMD
same,EORTC response after chemotherapy,"[1]; individual patients, cohort 4, 7000 mg/m2",SMD
same,EORTC response after ITPP,"[1]; individual patients, cohort 5 (8750 mg/m2)",SMD and PMD
same,EORTC response after chemotherapy,"[1]; individual patients, cohort 5, 8750 mg/m2",PMD
same,EORTC response after ITPP,"[1]; individual patients, cohort 6 (10500 mg/m2)",PMD and SMD
same,EORTC response after chemotherapy,"[1]; individual patients, cohort 6, 10500 mg/m2",PMD and PMR and SMD
same,EORTC response after ITPP,"[1]; individual patients, cohort 7 (12390 mg/m2)",PMD and PMR
same,EORTC response after chemotherapy,"[1]; individual patients, cohort 7, 12390 mg/m2",SMD
same,EORTC response after ITPP,"[1]; individual patients, cohort 8 (14500 mg/m2)",PMD and SMD
same,EORTC response after chemotherapy,"[1]; individual patients, cohort 8, 14500 mg/m2",SMD
same,Lesion1_chemo_SUV,[1]; [6],13.27 and 7.35 and 9.2 and 4.3 and 17.8 and 12.2 and 6.7 and 7.2 and 13.5 and 10.7 and 12.4 and 5.5 and 7.7 and 6.77
same,Lesion1_chemo_TLG,[1]; [6],4678.1 and 60.2 and 158.8 and 9.1 and 331.5 and 23.3 and 13.1 and 256.8 and 487.3 and 17.2 and 3.8 and 24.1
same,Lesion1_post_SUV,[1]; [7],17.32 and 8.65 and 4.69 and 14.2 and 13.2 and 10.3 and 8.4 and 9.8 and 10.7 and 12.2 and 18.4 and 13.9 and 18.7 and 7.5 and 12 and 8.8 and 12.7 and 10.8 and 45.7 and 4.25 and 11.68 and 7.7 and 10.67 and 9.79
same,Lesion1_post_TLG,[1]; [7],7101.9 and 86.3 and 302.7 and 877.7 and 139.3 and 181.7 and 75 and 382.8 and 112.3 and 878.1 and 21.6 and 249.1 and 3441.2 and 63.2 and 62.4 and 4.1 and 71.4 and 2012.6
same,Lesion1_pre_SUV,[1]; [8],14.29 and 12.03 and 5.25 and 9.2 and 10.8 and 9.1 and 7.6 and 8 and 8.3 and 7 and 14.1 and 9.3 and 12.4 and 9 and 13.2 and 11 and 12.04 and 21.6 and 5.32 and 11.06 and 6.36 and 11.68 and 11.22
same,Lesion1_pre_TLG,[1]; [8],4372.3 and 124.4 and 1117.7 and 865.6 and 104.9 and 699.3 and 37.5 and 197.8 and 43.3 and 531.1 and 1331.5 and 11.5 and 69 and 261.2 and 492.5 and 34.8 and 58.7 and 2.3 and 148.5 and 3074.9
same,Lesion2_chemo_SUV,[1]; [9],4.43 and 13.5 and 11.3 and 7.8 and 11.2 and 11 and 7 and 9.4 and 9.6 and 7.5 and 10.3 and 10.5 and 3.4 and 4.42 and 3.74
same,Lesion2_chemo_TLG,[1]; [9],4.9 and 33.2 and 133.7 and 36.1 and 149.3 and 14.3 and 27.9 and 32.3 and 3.9 and 12.6 and 26.7
same,Lesion2_post_SUV,[1]; [10],4.64 and 3.03 and 11.4 and 7.9 and 6.6 and 12.3 and 14 and 13.6 and 9 and 9.6 and 8.6 and 8.1 and 8.4 and 10.3 and 40.7 and 6.42 and 6.24 and 10.36 and 3.73
same,Lesion2_post_TLG,[1]; [10],7.8 and 11.6 and 331.6 and 39.8 and 377.1 and 65.2 and 12.4 and 11.8 and 24.4 and 19.9 and 14.3 and 147.3 and 3.1
same,Lesion2_pre_SUV,[1]; [11],3.34 and 10.83 and 7.9 and 7.2 and 3.9 and 7.6 and 11.6 and 13 and 5 and 7.8 and 5.5 and 3 and 10.2 and 13.3 and 20.8 and 5.84 and 5.77 and 11.3 and 4.77
same,Lesion2_pre_TLG,[1]; [11],3.9 and 7.1 and 175.5 and 11.2 and 263.8 and 27.2 and 31.1 and 3.3 and 23.7 and 55 and 21.4 and 24.9 and 86.2 and 13.2
same,Lesion3_chemo_SUV,[1]; [12],10.68 and 18.07 and 6.5 and 2.3 and 9.2 and 3.6 and 3.1 and 10.9 and 2.7 and 2.5 and 0
same,Lesion3_chemo_TLG,[1]; [12],308 and 244.4 and 13.2 and 1 and 42.3 and 3.4 and 0.3 and 0
same,Lesion3_post_SUV,[1]; [13],13.38 and 8.25 and 7.8 and 2.7 and 13 and 9.9 and 13.6 and 3.9 and 32.3 and 10.6 and 2.97 and 3.4
same,Lesion3_post_TLG,[1]; [13],436.7 and 47.6 and 16.7 and 1.2 and 79.1 and 13.5 and 26.8 and 22.4 and 1.1 and 3.2
same,Lesion3_pre_SUV,[1]; [14],12.41 and 13.89 and 10.1 and 2.3 and 3.6 and 5.8 and 13.7 and 2.6 and 10.84 and 19.9 and 10.9 and 2.7 and 7.35
same,Lesion3_pre_TLG,[1]; [14],261.7 and 28.6 and 21.7 and 1 and 13.5 and 3.4 and 72.1 and 179.3 and 22.6 and 0.1 and 3.9
same,Lesion4_chemo_SUV,[1]; [15],2.5 and 3.2 and 4.7 and 3.72
same,Lesion4_chemo_TLG,[1]; [15],1.3 and 2.7 and 0 and 46.4
same,Lesion4_post_SUV,[1]; [16],3.5 and 16.1 and 6.1 and 1.6 and 14.37
same,Lesion4_post_TLG,[1]; [16],1.3 and 42.9 and 0 and 161.9
same,Lesion4_pre_SUV,[1]; [17],7.6 and 11.5 and 4.2 and 8.83 and 3.9 and 13.22
same,Lesion4_pre_TLG,[1]; [17],17.4 and 33.9 and 16.4 and 1.1 and 84.7
same,Lesion5_chemo_SUV,[1]; [18],2 and 9.1 and 1.4 and 0
same,Lesion5_chemo_TLG,[1]; [18],3.4 and 0
same,Lesion5_post_SUV,[1]; [19],6.8 and 10.7 and 1.35 and 6.92
same,Lesion5_post_TLG,[1]; [19],18.9 and 0 and 11.9
same,Lesion5_pre_SUV,[1]; [20],7.3 and 11.5 and 6.85 and 3.5 and 3.76
same,Lesion5_pre_TLG,[1]; [20],7.3 and 4.3 and 0.6 and 2.7
same,RespITPP_EORTC,"[1]; individual patients, metabolic response after ITPP monotherapy",SMD and PMR and PMD
same,RespChemo_EORTC,"[1]; individual patients, metabolic response after subsequent chemotherapy following ITPP",SMD and PMD and PMR
same,RespITPP_EORTC,"[1]; metabolic response after ITPP, per individual patient, cohort c1, tumor c2",SMD and PMR and PMD
same,RespChemo_EORTC,"[1]; metabolic response after chemotherapy following ITPP, per individual patient, cohort c1, tumor c2",SMD and PMD and PMR
same,Time of peak plasma levels (Cmax) after infusion start,[2]; human,6 h
same,ITPP baseline levels at infusion start (Cmin),[2],below the detection threshold
same,Survival,"[3]; FOLFOX combined with ITPP, 10 days, five times each on alternate days",153 days
same,Survival,[3]; FOLFOX given following ITPP treatment,152 days
same,Survival,[3]; ITPP alone,65.5 days
same,Extension of survival,"[3]; syngeneic mouse model of colorectal liver metastasis, 17 (supplementary references)",60%
same,Human equivalent dose-corrected NOAEL,[4],"43,750 mg/m2"
